For test [1], the target named is T1, Butyrophilin subfamily 3 member A1 (Homo sapiens, UniProt O00481). Put plainly: Binding affinity to BTN3A1 intracellular domain (unknown origin) at 250 uM by isothermal titration calorimetry.
Target sequence in this assay (O00481 30-513 limits assumed): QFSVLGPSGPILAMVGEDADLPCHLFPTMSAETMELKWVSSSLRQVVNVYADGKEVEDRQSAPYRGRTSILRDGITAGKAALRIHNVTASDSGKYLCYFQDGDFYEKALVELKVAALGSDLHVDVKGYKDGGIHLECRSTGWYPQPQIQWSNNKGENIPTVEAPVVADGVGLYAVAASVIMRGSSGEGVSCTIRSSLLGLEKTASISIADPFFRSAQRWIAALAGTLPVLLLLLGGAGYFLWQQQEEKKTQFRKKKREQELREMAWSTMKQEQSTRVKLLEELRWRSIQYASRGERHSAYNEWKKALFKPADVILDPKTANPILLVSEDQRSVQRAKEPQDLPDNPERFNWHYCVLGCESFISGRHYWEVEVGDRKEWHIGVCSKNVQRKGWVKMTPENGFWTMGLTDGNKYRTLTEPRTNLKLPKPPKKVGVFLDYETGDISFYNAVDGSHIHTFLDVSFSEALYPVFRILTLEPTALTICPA
The target in test [2] is T1, Butyrophilin subfamily 3 member A1. Nature of the test: Inhibition of HMBPP binding to BTN3A1 intracellular domain (unknown origin) at compound to HMBPP molar ratio of 100 by isothermal titration calorimetry.
Target sequence in this assay (O00481 30-513 limits assumed): as above
Test [3] is described as follows: Activation of BTN3A1 in human PBMC-derived Vgamma9Vdelta2 T cells assessed as induction of interleukin 2 stimulated cell proliferation by measuring increase in CD3 positive cells incubated for 3 days followed by 11 days incubation post compound wash out with subsequent stimulation with IL-2 every 3 days measured after 14 days by flow cytometry.
In test [4] the target is T1, Butyrophilin subfamily 3 member A1. Nature of the test: Activation of BTN3A1 in human PBMC-derived Vgamma9Vdelta2 T cells assessed as induction of interferon gamma production in response to K562 cells preincubated for 4 hrs […] followed by 11 days incubation post compound wash out with subsequent coculturing with Vgamma9Vdelta2 T cells for 20 hrs by ELISA. The format is cell-based.
Target sequence in this assay (O00481 whole entry, the tested form may be a part): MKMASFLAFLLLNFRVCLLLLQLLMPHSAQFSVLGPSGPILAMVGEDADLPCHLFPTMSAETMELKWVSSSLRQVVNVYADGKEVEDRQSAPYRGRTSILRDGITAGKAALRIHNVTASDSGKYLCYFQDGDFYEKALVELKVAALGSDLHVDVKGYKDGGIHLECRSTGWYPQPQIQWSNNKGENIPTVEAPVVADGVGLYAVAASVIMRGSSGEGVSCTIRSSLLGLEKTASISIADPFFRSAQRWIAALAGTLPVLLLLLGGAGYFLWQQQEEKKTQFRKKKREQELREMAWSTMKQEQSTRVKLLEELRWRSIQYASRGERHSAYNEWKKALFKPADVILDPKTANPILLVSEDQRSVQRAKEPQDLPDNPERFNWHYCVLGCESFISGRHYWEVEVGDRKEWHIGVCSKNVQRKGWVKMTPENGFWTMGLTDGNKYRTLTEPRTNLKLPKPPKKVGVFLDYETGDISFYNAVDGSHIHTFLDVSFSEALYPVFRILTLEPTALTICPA

Active and inactive are the calls of the source. The rule behind the calls is not given here.

Among the data in ChEMBL document CHEMBL4130450, “Mixed Aryl Phosphonate Prodrugs of a Butyrophilin Ligand” (ACS Med Chem Lett, 2017) are Activity, inhibition and EC50 values, retold here.

As for `C/C(=C\CCP(=O)(O)Oc1cccc2ccccc12)CO`, the result in test [1] was inactive. Further, in test [2], the inhibition entry is “inactive”.
`C/C(=C\CCP(=O)(O)O)CO`: the concentration for a half-maximal effect (EC50) in test [3] stood at 4 µM.
On to `C/C(=C\CCP(=O)(COC(=O)C(C)(C)C)OCOC(=O)C(C)(C)C)CO` (stereo unspecified), for which the EC50 in test [4] worked out at 24 nM.
Turning to `C/C(=C\CCP(=O)(O)Oc1ccccc1)CO`, the result in test [1] was inactive.
Turning to `C/C(=C\CCP(=O)(COC(=O)C(C)(C)C)Oc1cccc2ccccc12)CO` (stereo unspecified), in test [4], the EC50 was found to be 9 nM.
